Results from ChEMBL document CHEMBL1153550, “In vitro study of Candida tropicalis isolates exhibiting paradoxical growth in the presence of high concentrations of caspofungin” (2007).
Activity calls are given as the source filed them.

Assays:
[1] = tested on: Candida tropicalis; test: Antifungal activity against > 2 x 10^7 CFU/ml Candida tropicalis isolate 5 in RPMI 1640 medium assessed as partial growth after 24 hrs by broth microdilution method; type: functional, organism-based
[2] = tested on: Candida tropicalis; test: Antifungal activity against > 2 x 10^7 CFU/ml Candida tropicalis isolate 15 in RPMI 1640 medium assessed as partial growth after 24 hrs by broth microdilution method; type: functional, organism-based
[3] = tested on: Candida tropicalis; test: Antifungal activity against 10^5 CFU/ml Candida tropicalis isolate 13 in RPMI 1640 medium at =< 0.09 ug/ml after 24 hrs followed by incubation in drug free medium for 48 hrs by broth microdilution method; type: functional, organism-based
[4] = tested on: Candida tropicalis; test: Antifungal activity against 2 x 10^7 CFU/ml Candida tropicalis isolate 9 in RPMI 1640 medium after 24 hrs by broth microdilution method; type: functional; details: isolate 9, 24 h
[5] = tested on: Candida tropicalis; test: Antifungal activity against 10^5 CFU/ml Candida tropicalis isolate 2 in RPMI 1640 medium at 12.5 ug/ml treated for 24 hrs followed by incubation in drug free medium for 48 hrs by broth microdilution method; type: functional, organism-based
[6] = tested on: Candida tropicalis; test: Fungistatic activity against Candida tropicalis clinical isolates at 12.5 ug/ml after 24 to 48 hrs by time-kill assay; type: functional, organism-based
[7] = tested on: Candida tropicalis; test: Antifungal activity against Candida tropicalis isolate 4 in RPMI 1640 medium assessed as paradoxical growth at 12.5 ug/ml after 48 hrs by broth microdilution method; type: functional, organism-based
[8] = tested on: Candida tropicalis; test: Antifungal activity against Candida tropicalis isolate 8 in RPMI 1640 medium assessed as paradoxical growth at 12.5 ug/ml after 48 hrs by broth microdilution method; type: functional, organism-based
[9] = tested on: Candida tropicalis; test: Antifungal activity against 10^5 CFU/ml Candida tropicalis isolate 4 in RPMI 1640 medium at 0.4 to 12.5 ug/ml treated for 24 hrs followed by incubation in drug free medium for 48 hrs by broth microdilution method; type: functional, organism-based
[10] = tested on: Candida tropicalis; test: Antifungal activity against 2 x 10^7 CFU/ml Candida tropicalis isolate 8 in RPMI 1640 medium after 24 hrs by broth microdilution method; type: functional; details: isolate 8, 24 h
[11] = tested on: Candida tropicalis; test: Fungicidal activity against Candida tropicalis isolate 15 at =< 3.12 ug/ml after 24 to 48 hrs by time-kill assay; type: functional, organism-based
[12] = tested on: Candida tropicalis; test: Antifungal activity against Candida tropicalis isolate 5 in RPMI 1640 medium assessed as paradoxical growth at 12.5 ug/ml after 48 hrs by broth microdilution method; type: functional, organism-based
[13] = tested on: Candida tropicalis; test: Antifungal activity against Candida tropicalis ATCC 750 in RPMI 1640 medium assessed as paradoxical growth at 12.5 ug/ml after 48 hrs by broth microdilution method; type: functional, organism-based
[14] = tested on: Candida tropicalis; test: Antifungal activity against 10^5 CFU/ml Candida tropicalis isolate 10 in RPMI 1640 medium at 12.5 ug/ml treated for 48 hrs followed by incubation in drug free medium for 48 hrs by broth microdilution method; type: functional, organism-based
[15] = tested on: Candida tropicalis; test: Antifungal activity against > 2 x 10^7 CFU/ml Candida tropicalis isolate 14 in RPMI 1640 medium assessed as partial growth after 24 hrs by broth microdilution method; type: functional, organism-based
[16] = tested on: Candida tropicalis; test: Antifungal activity against 10^5 CFU/ml Candida tropicalis isolate 1 in RPMI 1640 medium at 12.5 ug/ml treated for 24 hrs followed by incubation in drug free medium for 48 hrs by broth microdilution method; type: functional, organism-based
[17] = tested on: Candida tropicalis; test: Antifungal activity against 10^5 CFU/ml Candida tropicalis isolate 3 in RPMI 1640 medium at 12.5 ug/ml treated for 24 hrs followed by incubation in drug free medium for 48 hrs by broth microdilution method; type: functional, organism-based
[18] = tested on: Candida tropicalis; test: Antifungal activity against 10^5 CFU/ml Candida tropicalis isolate 14 in RPMI 1640 medium at 12.5 ug/ml treated for 48 hrs followed by incubation in drug free medium for 48 hrs by broth microdilution method; type: functional, organism-based
[19] = tested on: Candida tropicalis; test: Antifungal activity against 2 x 10^7 CFU/ml Candida tropicalis isolate 11 in RPMI 1640 medium after 24 hrs by broth microdilution method; type: functional; details: isolate 11, 24 h
[20] = tested on: Candida tropicalis; test: Antifungal activity against Candida tropicalis isolate 7 in RPMI 1640 medium assessed as paradoxical growth at 6.25 ug/ml after 24 hrs by broth microdilution method; type: functional, organism-based
[21] = tested on: Candida tropicalis; test: Antifungal activity against 10^5 CFU/ml Candida tropicalis isolate 8 in RPMI 1640 medium at 12.5 ug/ml treated for 24 hrs followed by incubation in drug free medium for 48 hrs by broth microdilution method; type: functional, organism-based
[22] = tested on: Candida tropicalis; test: Antifungal activity against Candida tropicalis isolate 6 in RPMI 1640 medium assessed as paradoxical growth at 12.5 ug/ml after 24 hrs by broth microdilution method; type: functional, organism-based
[23] = tested on: Candida tropicalis; test: Antifungal activity against Candida tropicalis ATCC 750 in RPMI 1640 medium assessed as paradoxical growth at 12.5 ug/ml after 24 hrs by broth microdilution method; type: functional, organism-based
[24] = tested on: Candida tropicalis; test: Antifungal activity against > 2 x 10^7 CFU/ml Candida tropicalis isolate 13 in RPMI 1640 medium assessed as partial growth after 24 hrs by broth microdilution method; type: functional, organism-based
[25] = tested on: Candida tropicalis; test: Antifungal activity Candida tropicalis isolate 4 in RPMI 1640 medium at 12.5 ug/ml after 24 hrs by time-kill assay; type: functional, organism-based
[26] = tested on: Candida tropicalis; test: Antifungal activity against 2 x 10^7 CFU/ml Candida tropicalis isolate 12 in RPMI 1640 medium after 24 hrs by broth microdilution method; type: functional; details: isolate 12, 24 h

CC[C@H](C)C[C@H](C)CCCCCCCCC(=O)N[C@H]1C[C@@H](O)[C@@H](NCCN)NC(=O)[C@@H]2[C@@H](O)CCN2C(=O)[C@H]([C@H](O)CCN)NC(=O)[C@H]([C@H](O)[C@@H](O)c2ccc(O)cc2)NC(=O)[C@@H]2C[C@@H](O)CN2C(=O)[C@H]([C@@H](C)O)NC1=O [CASPOFUNGIN]
active: Activity [3] | Activity [6] | Activity [11] | Activity [13] | Activity [20]
inactive: Activity [1] | Activity [2] | Activity [5] | Activity [7] | Activity [8] | Activity [9] | Activity [12] | Activity [14] | Activity [15] | Activity [16] | Activity [17] | Activity [18] | Activity [21] | Activity [22] | Activity [23] | Activity [24] | Activity [25]
0.024 µg/mL: MIC [4] | MIC [10] | MIC [19] | MIC [26]
